Series [1] deals with T1, wild type c-kit (Homo sapiens (Human), UniProt P10721). As to the kind of experiment: MSD Phospho c-Kit (Tyr721) Assay Whole Cell Lysate Kit in SCF-stimulated M-07e cells (pKIT assay, marked *). Conditions: Meso Scale Discovery (MSD) assay (values marked *). It is filed as cell-based. As to the method:
The ability of compounds of the disclosure (described herein as test compounds) to inhibit autophosphorylation of wild type c-kit was measures using either a PathScan phospho c-kit (Tyr719) sandwich ELISA (CST #7298) or a Phospho c-Kit (Tyr721) Assay Whole Cell Lysate Kit (MSD: 515DPD/catalog number K15119D-2).
For the MSD Phospho c-Kit (Tyr721) Assay Whole Cell Lysate Kit: M-07e cells were maintained in Iscove's Modified Dulbecco's Medium (IMDM) media supplemented with 10% FBS, 5 ng/ml granulocyte-macrophage colony-stimulating factor (GM-CSF) and 100 units/mL Penicillin-Streptomycin, and grown in a 37° C., 5% CO2 in a humidified tissue culture incubator. M-07e cells were washed with phenol red-free, serum-free, GM-CSF-free IMDM and seeded in the same media at 100,000 cells well in a volume of 50 ul in a 96-well U-bottom plate. The cells were incubated for 4 hours, followed by the addition of test compound at a final DMSO concentration of 0.25% for 60 min at 37° C. to generate an 8-point dose concentration series of test compounds. The cells were stimulated with 50 ng/ml human SCF for 10 min at room temperature. Cells were then lysed by the addition of 16.5 ul of PerkinElmer 5× AlphaLISA Lysis Buffer supplemented with Cell Signaling Technologies protease/phosphatase inhibitor. Lysis was encouraged by shaking at 4° C. for 30 minutes.
25 ul of lysate was transferred to the MSD plate and the plate was shaken at 700 rpm at room temperature for one hour, followed by washing 3 times with Tris wash buffer. Next, 25 ul of detection antibody solution (diluted from 50× stock in antibody dilution buffer) was added. After shaking at 700 rpm at room temperature for one hour, the plate was washed 3 times with Tris wash buffer. The plate was then read on MSD Sector Imager immediately after 150 ul of reading buffer added to each well.
An IC50 was calculated using a 4-parameter logistic nonlinear regression.

Series [2] deals with T1, wild type c-kit. Briefly: PathScan phospho c-kit (Tyr719) sandwich ELISA in SCF-stimulated M-07e cells (pKIT assay). It is filed as cell-based. Conditions: ELISA assay (values not marked *). An outline of the steps:
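Tyr719-phosphorylated c-kit was measured by colorimetric (TMB) sandwich ELISA in lysates of M-07e cells. Cells were starved 4 h without serum or GM-CSF, dosed 60 min at 37 °C with compound (8 points, duplicate, 0.25% DMSO), and stimulated 10 min with human SCF (500 ng/mL as added). IC50 values came from 4-parameter logistic regression.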
On the technique in general: An ELISA detects its analyte on a solid surface through an enzyme-linked reagent.

In series [3] the target is human P-glycoprotein (P-gp, MDR1) (Homo sapiens (Human), UniProt P08183). Briefly: MDCK-MDR1 cell monolayer drug transport assay (P-gp efflux ratio). It is filed as in vitro ADME. Conditions: pH 7.4, MDCK-MDR1 cells; for efflux ratio at 2 h, 1 µM: 1 uM concentration of compound, read-out: Pgp Efflux Ratio, 1 uM. An outline of the steps:
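P-gp substrate potential tested in MDCK-MDR1 monolayers on Transwell supports, cultured 4-8 days; monolayers with TEER <42 ohms·cm2 discarded. Transport run in HBSS (10 mM HEPES, pH 7.4) at 37° C with compound working solution at 1 μM.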

human P-glycoprotein (P-gp, MDR1), sequence (P08183 whole entry): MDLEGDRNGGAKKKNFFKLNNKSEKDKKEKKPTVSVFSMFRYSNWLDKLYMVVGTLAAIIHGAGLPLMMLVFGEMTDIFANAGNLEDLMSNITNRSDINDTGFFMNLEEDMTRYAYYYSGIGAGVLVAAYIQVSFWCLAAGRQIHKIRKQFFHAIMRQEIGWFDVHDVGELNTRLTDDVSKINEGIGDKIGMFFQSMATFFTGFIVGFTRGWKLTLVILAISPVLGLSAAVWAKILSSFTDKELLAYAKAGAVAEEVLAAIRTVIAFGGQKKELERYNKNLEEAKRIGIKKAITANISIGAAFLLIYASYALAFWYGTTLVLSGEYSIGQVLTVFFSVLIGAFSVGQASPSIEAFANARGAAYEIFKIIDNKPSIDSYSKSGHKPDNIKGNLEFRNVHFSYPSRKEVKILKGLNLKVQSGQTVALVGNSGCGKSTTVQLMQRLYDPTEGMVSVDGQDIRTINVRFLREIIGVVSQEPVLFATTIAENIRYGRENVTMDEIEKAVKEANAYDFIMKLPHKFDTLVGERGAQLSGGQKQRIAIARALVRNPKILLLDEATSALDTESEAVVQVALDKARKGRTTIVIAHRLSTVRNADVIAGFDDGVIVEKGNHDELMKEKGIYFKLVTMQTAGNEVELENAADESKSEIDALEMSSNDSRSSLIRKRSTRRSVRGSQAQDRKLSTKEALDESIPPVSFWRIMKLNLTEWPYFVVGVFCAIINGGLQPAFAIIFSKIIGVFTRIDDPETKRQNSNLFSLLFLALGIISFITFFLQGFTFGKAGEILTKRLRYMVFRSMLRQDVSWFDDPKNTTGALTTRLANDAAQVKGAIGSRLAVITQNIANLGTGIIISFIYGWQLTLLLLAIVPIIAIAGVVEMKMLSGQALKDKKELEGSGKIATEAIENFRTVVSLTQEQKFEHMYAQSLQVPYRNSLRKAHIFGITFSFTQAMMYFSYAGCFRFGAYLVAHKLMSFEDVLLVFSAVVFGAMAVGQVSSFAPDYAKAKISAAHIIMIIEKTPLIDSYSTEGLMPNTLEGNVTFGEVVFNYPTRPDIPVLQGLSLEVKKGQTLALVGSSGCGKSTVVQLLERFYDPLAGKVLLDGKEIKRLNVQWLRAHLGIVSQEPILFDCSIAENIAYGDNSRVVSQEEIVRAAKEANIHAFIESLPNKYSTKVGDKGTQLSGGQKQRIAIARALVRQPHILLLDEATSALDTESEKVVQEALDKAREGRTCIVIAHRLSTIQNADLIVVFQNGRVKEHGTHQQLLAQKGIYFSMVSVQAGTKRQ
T1 sequence (P10721 26-976): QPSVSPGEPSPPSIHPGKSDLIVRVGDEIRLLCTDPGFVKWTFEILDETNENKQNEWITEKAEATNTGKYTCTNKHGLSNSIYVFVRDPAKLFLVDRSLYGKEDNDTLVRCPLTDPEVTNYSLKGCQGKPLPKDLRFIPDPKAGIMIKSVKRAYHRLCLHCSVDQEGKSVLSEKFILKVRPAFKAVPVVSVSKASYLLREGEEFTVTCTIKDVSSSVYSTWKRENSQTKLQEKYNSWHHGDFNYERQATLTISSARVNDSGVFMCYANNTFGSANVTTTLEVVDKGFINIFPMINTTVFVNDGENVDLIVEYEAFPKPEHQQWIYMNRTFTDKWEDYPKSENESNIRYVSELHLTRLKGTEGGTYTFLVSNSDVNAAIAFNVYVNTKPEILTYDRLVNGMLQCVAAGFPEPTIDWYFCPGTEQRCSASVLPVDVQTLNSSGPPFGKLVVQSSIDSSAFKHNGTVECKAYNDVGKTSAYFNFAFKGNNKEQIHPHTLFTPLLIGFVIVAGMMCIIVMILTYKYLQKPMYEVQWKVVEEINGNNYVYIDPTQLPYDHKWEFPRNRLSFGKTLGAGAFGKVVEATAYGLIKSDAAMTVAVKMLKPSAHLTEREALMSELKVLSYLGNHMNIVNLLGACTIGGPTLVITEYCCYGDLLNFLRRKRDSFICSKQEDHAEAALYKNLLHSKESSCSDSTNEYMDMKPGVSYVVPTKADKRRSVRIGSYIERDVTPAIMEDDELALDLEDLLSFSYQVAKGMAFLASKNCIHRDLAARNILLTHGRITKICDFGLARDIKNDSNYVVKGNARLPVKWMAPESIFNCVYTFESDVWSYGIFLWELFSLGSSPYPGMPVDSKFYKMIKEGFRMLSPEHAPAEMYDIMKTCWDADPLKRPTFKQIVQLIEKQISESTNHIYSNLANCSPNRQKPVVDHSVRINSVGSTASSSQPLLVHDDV

Broadly, the IC50 is the midpoint of a concentration-inhibition curve. Low values mean inhibition by little substance, high ones a need for much substance. `Cc1ccc(-n2nnc(C3CC3)n2)cc1NC(=O)c1cnn2ccccc12` [Example 152, N-(5-(5-cyclopropyl-2H-tetrazol-2-yl)-2-methylphenyl)pyrazolo[1,5-a]pyridine-3-carboxamide] displayed an IC50 against wild type c-kit [1] of 3.6 nM.
On wild type c-kit [1], `Cc1ccc(-c2nnn([C@@H](C)c3ccccc3F)n2)cc1NC(=O)c1cnn2ccccc12` [Example 33, (S)-N-(5-(2-(1-(2-fluorophenyl)ethyl)-2H-tetrazol-5-yl)-2-methylphenyl)pyrazolo[1,5-a]pyridine-3-carboxamide] gave an IC50 of 2.7 nM.
Same read-out and setting: the figure for `COC(=O)N1CC(c2cnn(-c3ccc(Cl)c(NC(=O)c4cnn5ccccc45)c3)n2)C1` [Example 193] is 5.2 nM; for `Cc1ccc(-c2nnn(C3CC3)n2)cc1NC(=O)c1cnn2ccccc12` [Example 28, N-(5-(2-cyclopropyl-2H-tetrazol-5-yl)-2-methylphenyl)pyrazolo[1,5-a]pyridine-3-carboxamide] it is 9.1 nM; for `Cc1ccc(-c2nnn(C3CC4(C3)CC4(F)F)n2)cc1NC(=O)c1cnn2ccccc12` (single isomer, unassigned) [Example 42, N-(5-(2-((3r,5r)-1,1-difluorospiro [2.3]hexan-5-yl)-2H-tetrazol-5-yl)-2-methylphenyl)pyrazolo[1,5-a]pyridine-3-carboxamide or N-(5-(2-((3s,5s)-1,1-difluorospiro[2.3]hexan-5-yl)-2H-tetrazol-5-yl)-2-methylphenyl)pyrazolo[1,5-a]pyridine-3-carboxamide] it is 3.8 nM.
At wild type c-kit [1], `Cc1ccc(-c2nnn(C(C)C3CCOCC3)n2)cc1NC(=O)c1cnn2ccccc12` (single isomer, unassigned) [Example 39, (R)-N-(2-methyl-5-(2-(1-(tetrahydro-2H-pyran-4-yl)ethyl)-2H-tetrazol-5-yl)phenyl)pyrazolo[1,5-a]pyridine-3-carboxamide or (S)-N-(2-methyl-5-(2-(1-(tetrahydro-2H-pyran-4-yl)ethyl)-2H-tetrazol-5-yl)phenyl)pyrazolo[1,5-a]pyridine-3-carboxamide] registered an IC50 of 9.1 nM.
Compound `Cc1ccc(-c2nnn(C3CC4(CCC4)C3)n2)cc1NC(=O)c1cnn2ccccc12` [Example 4, N-(2-methyl-5-(2-(spiro[3.3]heptan-2-yl)-2H-tetrazol-5-yl)phenyl)pyrazolo[1,5-a]pyridine-3-carboxamide] registered an IC50 at wild type c-kit [1] of 2.6 nM.
With `COCCS(=O)(=O)N1CC(c2nnn(-c3ccc(C)c(NC(=O)c4cnn5ccccc45)c3)n2)C1` [Example 189, N-(5-(5-(1-((2-methoxyethyl)sulfonyl)azetidin-3-yl)-2H-tetrazol-2-yl)-2-methylphenyl)pyrazolo[1,5-a]pyridine-3-carboxamide], the IC50 against wild type c-kit [1] is 4.9 nM.
Same read-out and setting: the figure for `Cc1ccc(-c2nnn([C@H](C)C3CC3)n2)cc1NC(=O)c1cnn2ccccc12` (single isomer, unassigned) [Example 38, (S)-N-(5-(2-(1-cyclopropylethyl)-2H-tetrazol-5-yl)-2-methylphenyl)pyrazolo[1,5-a]pyridine-3-carboxamide or (R)-N-(5-(2-(1-cyclopropylethyl)-2H-tetrazol-5-yl)-2-methylphenyl)pyrazolo[1,5-a]pyridine-3-carboxamide] is 7.2 nM; for `Cc1ccc(-c2nnn(C3CC(F)(F)C3)n2)cc1NC(=O)c1cnn2ccc(N3CCOCC3)cc12` [Example 79, N-(5-(2-(3,3-difluorocyclobutyl)-2H-tetrazol-5-yl)-2-methylphenyl)-5-morpholinopyrazolo[1,5-a]pyridine-3-carboxamide] it is 3.9 nM; for `Cc1ccc(-c2nnn([C@H]3C[C@@H](C(F)(F)F)C3)n2)cc1NC(=O)c1cnn2ccccc12` [Example 23, N-(2-methyl-5-(2-((1s,3s)-3-(trifluoromethyl)cyclobutyl)-2H-tetrazol-5-yl)phenyl)pyrazolo[1,5-a]pyridine-3-carboxamide or N-(2-methyl-5-(2-((1r,3r)-3-(trifluoromethyl)cyclobutyl)-2H-tetrazol-5-yl)phenyl)pyrazolo[1,5-a]pyridine-3-carboxamide] it is 2.6 nM.
In the case of `Cc1ccc(-c2nnn(C3CN(S(=O)(=O)C(F)(F)F)C3)n2)cc1NC(=O)c1cnn2ccccc12` [Example 182], on wild type c-kit [1], the IC50 was found to be 4 nM. Compared with the last compound, the IC50 is about 1.5-fold higher.
Same read-out and setting: with `Cc1ccc(-c2nnn(CC[C@@](C)(O)C(F)(F)F)n2)cc1NC(=O)c1cnn2ccccc12` (single isomer, unassigned) [Example 41, (R)-N-(2-methyl-5-(2-(4,4,4-trifluoro-3-hydroxy-3-methylbutyl)-2H-tetrazol-5-yl)phenyl)pyrazolo[1,5-a]pyridine-3-carboxamide or (S)-N-(2-methyl-5-(2-(4,4,4-trifluoro-3-hydroxy-3-methylbutyl)-2H-tetrazol-5-yl)phenyl)pyrazolo[1,5-a]pyridine-3-carboxamide] the figure was 1.8 nM; with `Cc1ccc(-c2nnn(CC3CC3(F)F)n2)cc1NC(=O)c1cnn2ccccc12` (stereo not shown) [Example 6, N-(5-(2-((2,2-difluorocyclopropyl)methyl)-2H-tetrazol-5-yl)-2-methylphenyl)pyrazolo[1,5-a]pyridine-3-carboxamide], 4.5 nM.
Still for that read-out and setting: with `Cc1ccc(-c2nnn(CC3CCOCC3)n2)cc1NC(=O)c1cnn2ccccc12` [Example 3, N-(2-methyl-5-(2-((tetrahydro-2H-pyran-4-yl)methyl)-2H-tetrazol-5-yl)phenyl)pyrazolo[1,5-a]pyridine-3-carboxamide] the figure was 8.4 nM.
As for `Cc1cc(F)c(-c2nnn(C3CC3)n2)cc1NC(=O)c1cnn2ccc(-c3cn(CC(C)(C)O)nc3C3CC3)cc12` [Example 241, 5-(3-cyclopropyl-1-(2-hydroxy-2-methylpropyl)-1H-pyrazol-4-yl)-N-(5-(2-cyclopropyl-2H-tetrazol-5-yl)-4-fluoro-2-methylphenyl)pyrazolo[1,5-a]pyridine-3-carboxamide], half-maximal inhibition at wild type c-kit [2] (IC50) required 0.2 nM. Also, in series [3] (0.1 uM concentration of compound (denoted by **), read-out: Pgp Efflux Ratio), the efflux ratio at 2 h, 0.1 µM was 6.3.
On wild type c-kit [2], `C[C@](O)(CO)Cn1cc(-c2ccn3ncc(C(=O)Nc4cc(-n5nnc([C@@H]6C[C@H]6F)n5)ccc4Cl)c3c2)cn1` (single isomer, unassigned) [Example 273, N-(2-chloro-5-(5-((1S,2R)-2-fluorocyclopropyl)-2H-tetrazol-2-yl)phenyl)-5-(1-((R)-2,3-dihydroxy-2-methylpropyl)-1H-pyrazol-4-yl)pyrazolo[1,5-a]pyridine-3-carboxamide or N-(2-chloro-5-(5-((1R,2S)-2-fluorocyclopropyl)-2H-tetrazol-2-yl)phenyl)-5-(1-((R)-2,3-dihydroxy-2-methylpropyl)-1H-pyrazol-4-yl)pyrazolo[1,5-a]pyridine-3-carboxamide] returned an IC50 of 0.5 nM. Further, the efflux ratio at 2 h, 1 µM in series [3] amounted to 4.9.
On the same counts, the results for `COC(=O)N1CC(n2nnc(-c3ccc(C)c(NC(=O)c4cnn5ccc(NCC(C)(C)O)cc45)c3)n2)C1` [Example 89, methyl 3-(5-(3-(5-((2-hydroxy-2-methylpropyl)amino)pyrazolo[1,5-a]pyridine-3-carboxamido)-4-methylphenyl)-2H-tetrazol-2-yl)azetidine-1-carboxylate] are 71 nM and 43.1.
With `COCCNc1ccn2ncc(C(=O)Nc3cc(-c4nnn([C@H]5C[C@H](CO)C5)n4)c(F)cc3C)c2c1` [Example 202, N-(4-fluoro-5-(2-((1r,3r)-3-(hydroxymethyl)cyclobutyl)-2H-tetrazol-5-yl)-2-methylphenyl)-5-((2-methoxyethyl)amino)pyrazolo[1,5-a]pyridine-3-carboxamide], on wild type c-kit [2], the IC50 was determined as 14.8 nM. In addition, the efflux ratio at 2 h, 1 µM in series [3] was 19.1.
Regarding `COC(=O)N1CC(n2nnc(-c3ccc(C)c(NC(=O)c4cnn5ccc(N6CC7(COC7)C6)cc45)c3)n2)C1` [Example 98, methyl 3-(5-(3-(5-(2-oxa-6-azaspiro[3.3]heptan-6-yl)pyrazolo[1,5-a]pyridine-3-carboxamido)-4-methylphenyl)-2H-tetrazol-2-yl)azetidine-1-carboxylate], the IC50 on wild type c-kit [2] is 47.8 nM. Besides, the efflux ratio at 2 h, 1 µM in series [3] came to 15.5.

The record behind these values is patent US20240262826A1, “WILD TYPE KIT INHIBITORS” (Blueprint Medicines Corporation, priority 2022, published 2024).
